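Tested at 5 concentrations; 48 h exposure; 96-well plates; endpoints linearly interpolated, else capped at highest concentration. At the GI50, growth is halved. TGI: concentration producing complete growth inhibition.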
What follows are molecules tested on HCC-2998 colon (assay: growth of human tumour cells (NCI), 48 h).
`CCN1C(=O)N(CC)C2C1NN=c1s/c(=C3\C(=O)N(CCc4ccccc4)c4ccccc43)c(=O)n12` (stereo not drawn) was tested, and the GI50 was 1.15 µM and the TGI was greater than 25 µM. `CN(C)c1ccc(N=Nc2ccncc2)cc1` was tested, and the TGI was 92.6 µM. Molecule `CC1(C)N=C(N)N=C(N)N1c1ccc(CCCCc2ccc(S(=O)(=O)F)cc2)c(Cl)c1` has a GI50 of 0.884 µM and a TGI of 20.9 µM. `N#CN1CC[C@H](C(=O)Nc2ncc(-c3ccncc3)s2)C1` showed a GI50 of 0.0844 µM and a TGI of 11 µM. With `Cn1cc(-c2nonc2-c2cn(C)c3ccccc23)c2ccccc21` the GI50 was 3.07 µM and the TGI was greater than 100 µM. `COC(=O)c1nc(-c2ccccc2)oc1S(=O)(=O)n1nc(C)cc1N` showed a GI50 of 18.2 µM and a TGI of 32.2 µM. With `CCCCCn1sc(=O)n(Cc2ccc(CNC(=O)OCc3ccc4cccc(O)c4n3)cc2)c1=O` the GI50 was 2.09 µM and the TGI was 4.52 µM. `Cn1cncc1CC1COC(=O)C1C(O)c1ccccc1` (stereo not drawn) gave a TGI greater than 100 µM. `CCCCn1c(=O)c2c(nc3n2CCCN3CCc2ccc(OCC(=O)NCCN(CC)CC)cc2)n(CCCC)c1=O` was tested, and the GI50 was 2.93 µM and the TGI was 9.73 µM.

The molecules below were run on HCT-116 colon (assay: growth of human tumour cells (NCI), 48 h).
`COc1cc(/C=C/[N+](=O)[O-])cc(Br)c1OC` gave a GI50 of 1.78 µM and a TGI of 3.22 µM. With `CN(CC(N)=O)C(=O)N(CCCl)N=O` the TGI was greater than 100 µM. With `CC(C)=CCC/C(C)=C/CC/C(C)=C/CC/C=C(\C)CC/C=C(\C)CCC(=O)Nc1ccn(C2OC(CO)C(O)C2(F)F)c(=O)n1` (stereo not drawn) the GI50 was 0.0314 µM and the TGI was 1.14 µM. Molecule `COc1ccc(-c2cc(=O)c3c(OC)c(OC)c(OC)c(OC)c3o2)cc1` has a TGI greater than 100 µM. In the case of `CC(C)(C)CN1CCn2c(nc3c(N)nccc32)S1`, the GI50 is reported as 4.61 µM and the TGI is reported as 17.1 µM. Molecule `COc1ccc2c(c1)OC1=C(C(=O)OC1)C2c1cc(OC)c2c(c1)OCO2` (stereo not drawn) has a GI50 of 0.0366 µM and a TGI of 7.16 µM. In the case of `CC1(C)CCC[C@]2(C)[C@@H](C=O)C(C=O)=CC[C@@H]12`, the TGI is reported as 83.4 µM. With `O=c1[nH]cnc2c(C3NC(CO)C(O)C3O)c[nH]c12` (stereo not drawn) the GI50 was greater than 100 µM and the TGI was greater than 100 µM. `CCn1c2ccccc2c2cc(/C=C(/C#N)C(N)=O)ccc21` gave a GI50 of 3.71 µM and a TGI greater than 52.4 µM. Molecule `CCN1C(=O)N(CC)C2C1NN=c1s/c(=C3\C(=O)N(CCc4ccccc4)c4ccccc43)c(=O)n12` (stereo not drawn) has a GI50 of 0.347 µM and a TGI of 1.4 µM. In the case of `CN(C)c1ccc(N=Nc2ccncc2)cc1`, the TGI is reported as greater than 100 µM. In the case of `CC1(C)N=C(N)N=C(N)N1c1ccc(CCCCc2ccc(S(=O)(=O)F)cc2)c(Cl)c1`, the GI50 is reported as 0.0483 µM and the TGI is reported as 18.9 µM. `N#CN1CC[C@H](C(=O)Nc2ncc(-c3ccncc3)s2)C1` showed a GI50 of 0.0401 µM and a TGI of 3.2 µM. With `Cn1cc(-c2nonc2-c2cn(C)c3ccccc23)c2ccccc21` the GI50 was 0.61 µM and the TGI was greater than 100 µM. With `COC(=O)c1nc(-c2ccccc2)oc1S(=O)(=O)n1nc(C)cc1N` the GI50 was 4.73 µM and the TGI was 17.6 µM. `CCCCCn1sc(=O)n(Cc2ccc(CNC(=O)OCc3ccc4cccc(O)c4n3)cc2)c1=O` showed a GI50 of 0.419 µM and a TGI of 2.69 µM. Molecule `Cn1cncc1CC1COC(=O)C1C(O)c1ccccc1` (stereo not drawn) has a TGI greater than 100 µM. In the case of `CCCCn1c(=O)c2c(nc3n2CCCN3CCc2ccc(OCC(=O)NCCN(CC)CC)cc2)n(CCCC)c1=O`, the GI50 is reported as 1.63 µM and the TGI is reported as 6.42 µM.

Each molecule was assayed on LOX IMVI melanoma (assay: growth of human tumour cells (NCI), 48 h).
Molecule `COc1cc(/C=C/[N+](=O)[O-])cc(Br)c1OC` has a GI50 of 0.899 µM and a TGI of 2.18 µM. With `CN(CC(N)=O)C(=O)N(CCCl)N=O` the TGI was greater than 100 µM. `CC(C)=CCC/C(C)=C/CC/C(C)=C/CC/C=C(\C)CC/C=C(\C)CCC(=O)Nc1ccn(C2OC(CO)C(O)C2(F)F)c(=O)n1` (stereo not drawn) showed a GI50 of 0.347 µM and a TGI of 14.5 µM. `COc1ccc(-c2cc(=O)c3c(OC)c(OC)c(OC)c(OC)c3o2)cc1` showed a TGI greater than 100 µM. `CC(C)(C)CN1CCn2c(nc3c(N)nccc32)S1` was tested, and the GI50 was 9.5 µM and the TGI was 23.5 µM. `COc1ccc2c(c1)OC1=C(C(=O)OC1)C2c1cc(OC)c2c(c1)OCO2` (stereo not drawn) gave a GI50 of 0.0683 µM and a TGI greater than 100 µM. `CC1(C)CCC[C@]2(C)[C@@H](C=O)C(C=O)=CC[C@@H]12` was tested, and the TGI was 42.2 µM. With `O=c1[nH]cnc2c(C3NC(CO)C(O)C3O)c[nH]c12` (stereo not drawn) the GI50 was greater than 100 µM and the TGI was greater than 100 µM. `CCn1c2ccccc2c2cc(/C=C(/C#N)C(N)=O)ccc21` showed a GI50 of 14.4 µM and a TGI greater than 100 µM. In the case of `CCN1C(=O)N(CC)C2C1NN=c1s/c(=C3\C(=O)N(CCc4ccccc4)c4ccccc43)c(=O)n12` (stereo not drawn), the GI50 is reported as 0.527 µM and the TGI is reported as 4.94 µM. With `CN(C)c1ccc(N=Nc2ccncc2)cc1` the TGI was greater than 100 µM. `CC1(C)N=C(N)N=C(N)N1c1ccc(CCCCc2ccc(S(=O)(=O)F)cc2)c(Cl)c1` was tested, and the GI50 was 0.0723 µM and the TGI was 15.3 µM. `N#CN1CC[C@H](C(=O)Nc2ncc(-c3ccncc3)s2)C1` gave a GI50 of less than 0.019 µM and a TGI greater than 100 µM. For `Cn1cc(-c2nonc2-c2cn(C)c3ccccc23)c2ccccc21`, the GI50 was 1.24 µM and the TGI was greater than 100 µM. `COC(=O)c1nc(-c2ccccc2)oc1S(=O)(=O)n1nc(C)cc1N` showed a GI50 of 1.51 µM and a TGI of 3.34 µM. For `CCCCCn1sc(=O)n(Cc2ccc(CNC(=O)OCc3ccc4cccc(O)c4n3)cc2)c1=O`, the GI50 was 1.09 µM and the TGI was 2.33 µM. With `Cn1cncc1CC1COC(=O)C1C(O)c1ccccc1` (stereo not drawn) the TGI was greater than 100 µM. Molecule `CCCCn1c(=O)c2c(nc3n2CCCN3CCc2ccc(OCC(=O)NCCN(CC)CC)cc2)n(CCCC)c1=O` has a GI50 of 0.929 µM and a TGI of 1.99 µM.

Source: PubChem BioAssay (NCI)
